Assays:
[1] = molecular target: T1, recombinant human (rh) KLK5 (Homo sapiens, UniProt Q9Y337); assay: Enzymatic activity of Kallikrein 5 (KLK5), fluorogenic peptide substrate Boc-V-P-R-AMC; assay type: biochemical
T1 construct: purchased R&D Systems 1108-SE
T1 sequence (Q9Y337 23-293): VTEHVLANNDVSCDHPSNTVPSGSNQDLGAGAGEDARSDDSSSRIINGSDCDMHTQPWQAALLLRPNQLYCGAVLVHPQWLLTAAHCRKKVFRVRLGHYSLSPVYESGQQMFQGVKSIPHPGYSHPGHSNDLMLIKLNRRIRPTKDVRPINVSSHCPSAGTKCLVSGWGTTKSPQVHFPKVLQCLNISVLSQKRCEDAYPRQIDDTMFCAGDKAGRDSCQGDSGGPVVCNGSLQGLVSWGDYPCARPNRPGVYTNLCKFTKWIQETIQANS
Protocol: Compound 1 was assayed for enzymatic activity of Kallikrein 5 (KLK5) as follows, and its activity compared to that of salicylic acid. The KLK5 activity of compound 1 was calculated as a percentage of KLK5 activity relative to salicylic acid. The KLK5 activity of compound 1 was about 165% relative to the KLK5 activity of salicylic acid.
In the stratum corneum, skin's outermost layer, cell-to-cell cohesion depends primarily on proteins known as the corneodesmosomes. During skin remodeling and renewal dead cells are shed from the skin surface by the action of native proteases that break down the corneodesmosomes. […] Hypothetically, up-regulation of the activities of these proteases using different active candidates could be utilized to increase the rate of shedding of dead skin, thus providing a natural means for skin exfoliation. To this end, the enzymatic activity of a member of the KLK family, recombinant human (rh) KLK5, was monitored following pre-incubation with actives and measuring the rate of peptide bond cleavage of a synthetic substrate.
Enzymatic activity of KLK5 was measured by incubating recombinant human (rh) KLK5 protease (R&D Systems, Cat No. 1108-SE) with a specific fluorogenic peptide substrate Boc-V-P-R-AMC (R& D Systems, Cat No. ES011). The substrate is conjugated to a quenched fluorescent group. […] Increase in fluorescence reading indicates an increase in rhKLK5 activity. […] After 60 seconds of incubation, fluorescence was measured at 340 nm (Excitation wavelength) and 485 nm (Emission wavelength) every 1 minute for 7 minutes. Rate (kinetics) of enzyme activity was calculated as follows: Rate of enzyme activity=Change of fluorescent reading (after background correction) Change of reaction time (min) Percent change of activity due to a test compound was calculated by comparing rate of enzyme activity in the presence of the test compound to that of a control without the test compound and statistical significance was calculated using a t-test. […]

[2] = Skin PAMPA parallel artificial membrane penetration assay; assay type: in vitro ADME; conditions: 50 μM, donor pH 4.25, acceptor pH 7.4, two hours incubation
Protocol: Several salicylic acid derivatives were assessed for their ability to penetrate skin. Each of the compounds was formulated in an aqueous buffer, with a final pH of 4.25 at a concentration of 50 μM. The skin permeability of the compounds was measured using a high throughput transdermal permeability model, the parallel artificial membrane penetration assay (Skin PAMPA™), which uses a skin mimetic artificial membrane that simulates the barrier properties of the strateum corneum.
Briefly, the Skin PAMPA™ assay is a sandwich assay that utilizes two 96-well plate assemblies, one of which acts as the acceptor chambers (comprising a buffer), and one of which acts as the donor chambers (comprising a buffer and the compound to be tested). […] After an incubation period, the donor and acceptor chambers are analyzed for the amount of compound present.
In the current experiments, the acceptor chamber included an acceptor solution made from Prisma™ HT buffer solution (Pion, Inc.) that was adjusted to a pH of 7.4±0.05 using 1.0 M NaOH, and the donor chamber included a donor solution made from Prisma™ HT buffer solution (Pion, Inc.) that was adjusted to a pH of 4.25±0.05 using 1.0 M NaOH. […] Effective permeability was then calculated by the same method as Sinko et al., Eur. J. Pharm. […]

SMILES: CCOC(=O)c1cc2c(c(C(=O)OCC)c1O)CCCC2 [Compound 1]
- stimulation of KLK5 (in words) ([1]; rhKLK5): very potent stimulator of KLK5
- KLK5 activity as a percentage relative to the KLK5 activity of salicylic acid ([1]; rhKLK5, rate of enzyme activity relative to salicylic acid): about 165%
- KLK5 activity as compared to salicylic acid (in words) ([1]; rhKLK5, FIG. 1 asterisk): superior KLK5 activity
- skin permeability as compared to salicylic acid (in words) [2]: higher permeability
